We go through three compounds from article PMC10135378, “Synthesis of Novel N-Heterocyclic Carbene-Ruthenium (II) Complexes, “Precious” Tools with Antibacterial, Anticancer and Antioxidant Properties” (Antibiotics, 2023).

Assay [1] can be described thus: ABTS radical scavenging assay. The note with it: 5 min, room temperature, 730 nm. The source says:
To further analyze the Ru-NHC complexes antiradical potential, we examined their capability to interfere with the ABTS radical cation, a well-known protonated radical with a characteristic maximal absorbance at 730 nm, which diminishes with the scavenging of the radical proton. The assay measures radical scavenging by the electron donation. The outcomes in terms of ABTS% scavenging activity are reported in Figure 7 and IC50 values of Ru-NHC complexes, together with the standard Trolox, on ABTS radical are summarized in Table 3 and Table S3.
The radical scavenging properties of the Ru-NHC complexes on a 2,2′-azino-bis(3-ethylbenzothiazoline-6-sulfonate) radical cation (ABTS^•+) were calculated as described by Fazio et al., with few adjustments. Briefly, 2 mM ABTS and 70 mM potassium persulfate water solutions were mixed and incubated to obtain ABTS^•+ radical stock solution (16 h, room temperature, in the dark). ABTS solution was diluted in ethanol to obtain an absorbance of 0.70 ± 0.02 at 730 nm, prior to use. Then, 2 μL of each Ru-NHC complex at different concentrations, properly dissolved in DMSO, were mixed with 198 μL of the ABTS^•+ solution in a 48-well plate obtaining the following concentrations: 0.1, 1, 10, 50, and 100 µg/mL. The solutions were vigorously shaken and incubated (5 min, room temperature, in the dark). The ABTS scavenging activity was determined at 730 nm, using a microplate reader. The control was prepared mixing 2 μL of DMSO with 198 μL of the ABTS^•+ solution. The ABTS radical scavenging was expressed as inhibition percentages (%IABTS) of each complex compared to the control, according to the formula: %IABTS=A0−A/A0×100 where A0 is the absorbance at 730 nm of the control reaction and A is the absorbance at 730 nm in the presence of samples.
IC50 values for the Ru complexes were calculated from the %IABTS using GraphPad Prism 9 software (GraphPad Inc., San Diego, CA, USA). Trolox was employed as the positive control.

Assay [2] can be described thus: DPPH radical scavenging assay. The note with it: 30 min, room temperature, 517 nm. As to the method: Generally, the DPPH radical is able to accept hydrogen radicals or an electron, turning into a stable molecule. The interaction with Ru-NHC complexes induces the reduction of DPPH radical intensity measured at 517 nm, due to the conversion of the purple DPPH radical into its corresponding yellow hydrazine form.
The radical scavenging properties of Ru-NHC complexes on the 1,1-diphenyl-2-picryl-hydrazil (DPPH) radical were evaluated as described by Fazio et al., with minor corrections. Then, 20 μL of each Ru complex, properly dissolved in DMSO, were mixed with methanol DPPH 0.1 mM (180 μL) in a 48-well plate obtaining […] different concentrations (10, 50, 100, 200 and 300 µg/mL). Next, 20 μL of DMSO in 180 μL of DPPH methanol solution was diluted as the control. The mixture was vigorously shaken and incubated (room temperature, 30 min, in the dark). The scavenging activity was measured at 517 nm, using a microplate reader. DPPH radical scavenging was expressed as inhibition percentages (%IDPPH) for the Ru complexes compared to the initial concentration of DPPH (control) according to the formula: %IDPPH=A0−A/A0×100 where A0 is the absorbance at 517 nm of the control reaction and A is the absorbance at 517 nm in the presence of samples.
The obtained IDPPH percentages allowed the IC50 values determination, using GraphPad Prism 9 software (GraphPad Inc., San Diego, CA, USA). Trolox was employed as a positive control.

Assay [3] deals with SH-SY5Y cells. Description: MTT assay, anticancer activity on SH-SY5Y neuroblastoma cells. The class given is cell-based. The note with it: 72 h exposure, 0.1-100 µM. As to the method:
(§1) The anticancer activity of all the synthesized Ru-NHC complexes (RANHC I-VI) was studied in two human breast cancer cell lines, namely the estrogen receptor positive (ER+) MCF-7 cells and the triple negative MDA-MB-231 cells (ER-, PR-, and HER-2/Neu not overexpressed), and neuroblastoma cells, i.e., SH-SY5Y. First, the cells were exposed for 72 h at different concentrations of the studied complexes (from 0.1 to 100 µM) and then their viability was checked by MTT assay.
(§2) The adopted cells (breast cancer MCF-7 and MDA-MB-231 and human mammary epithelial MCF-10A cells) were purchased from American Type Culture Collection (ATCC, Manassas, VA, USA) and cultured as indicated. The mouse embryonic fibroblast BALB/3T3 and neuroblastoma SH-SY5Y were also obtained from American Type Culture Collection (ATCC, Manassas, VA, USA) and cultured in DMEM high glucose supplemented with 100 U mL^−1 penicillin/streptomycin and 10% bovine calf serum (BCS) or 10% fetal bovine serum (FBS), respectively.
(§3) MTT assay (Sigma Aldrich (St. Louis, MO, USA)) was used for the in vitro anticancer activity evaluation, as previously reported. The Ru-NHC complexes were employed at different concentrations (0.1–1–10–25–50–100 μM) for 72 h. The IC50 values were calculated from the percent (%) of control using GraphPad Prism 9 (GraphPad Software, La Jolla, CA, USA).

Assay [4] relates to MCF-10A cells. Description: MTT assay, non-tumoral MCF-10A cells. It counts as cell-based, human. The note with it: 72 h exposure.
Description: (§4) Additionally, we investigated the selectivity of all the synthesized Ru-NHC complexes on the cancer cells by studying their capability to interfere with the growth of two non-tumoral cells, namely the MCF-10A and BALB/3T3 cells.
as §2, §3

The test system of assay [5] is BALB/3T3 cells. Put plainly: MTT assay, non-tumoral BALB/3T3 fibroblasts. It counts as cell-based. The note with it: 72 h exposure, non-tumoral mouse embryonic fibroblasts.
Description: as §4, §2, §3

Assay [6] has as its system MCF-7 cells. Description: MTT assay, anticancer activity on MCF-7 cells. It counts as cell-based, human. Particulars: 72 h exposure, 0.1-100 µM. As to the method:
as §1, §2, §3

In assay [7] the test system is MDA-MB-231 cells. Description: MTT assay, anticancer activity on MDA-MB-231 cells. It counts as cell-based, human. The note with it: MTT, 72 h exposure, 0.1-100 µM. The procedure: as §1, §2, §3
Assay [8] relates to Staphylococcus aureus (ATCC 23235). Description: MIC/MBC broth dilution, S. aureus. It counts as cell-based. The note with it: control for strain sensitivity. As to the method:
(§5) One Gram-negative (Escherichia coli (ATCC® 25922TM)) and two Gram-positive bacterial strains (Enterococcus faecalis (ATCC® 19433TM) and Staphylococcus aureus (ATCC® 23235TM)] were used for MIC and MBC values determination, according to CLSI guidelines. MIC represents the lowest concentration of compound inhibiting the visible microbial growth and expressed as μg/mL; MBC is the lowest concentration able to kill the bacteria. Both determinations were performed by the broth dilution method. Bacteria were grown overnight in LB medium (2%), then diluted to a density of […] colony forming units (CFUs) per mL, plated in sterile 96-well microplates, obtaining about 10^5 cells/ well. Increasing concentrations of the Ru-NHC complexes (1, 10, 25, 50, 70, 100 µg/mL) were used. After incubation at 37 °C for 18 h (overnight), bacterial growth was checked at a wavelength of 600 nm using a Multiskan spectrophotometer (model Multiskan Ex Microplate; Thermo Scientific, Nyon, Switzerland) and MIC or MBC values were determined, comparing cell density with a positive control (bacterial cells grown in LB medium were added with only the vehicle, DMSO). Each experiment was carried out five times, in triplicate. Ampicillin (Sigma Aldrich A9393) was used as the control for strain sensitivity.

Assay [9] deals with Escherichia coli (ATCC 25922). Description: MIC/MBC broth dilution, E. coli. It counts as cell-based. The note with it: control for strain sensitivity. The procedure:
as §5

Assay [10] concerns Enterococcus faecalis (ATCC 19433). Description: MIC/MBC broth dilution, E. faecalis. It counts as cell-based. Particulars: control for strain sensitivity. The procedure: as §5

For the compound `Cc1c(C)c2c(c(C)c1O)CCC(C)(C(=O)O)O2` (stereo not shown) [Trolox, reference compound], the figures for the 50% inhibitory concentration (IC50) in assay [1] and in assay [2] were 92.3 ± 0.9 µM and 99.91 ± 0.9 µM, respectively.

With `N.N.[Cl][Pt][Cl]` [Cisplatin, reference compound], the 50% inhibitory concentration (IC50) in assay [3] turned out to be 18.8 ± 0.9 µM; in assay [4], 80.24 ± 0.8 µM; in [5] it was 21.6 ± 1.2 µM; in assay [6] it was 26.2 ± 1.1 µM; in assay [7], 32.1 ± 1 µM.

`CC1(C)S[C@@H]2[C@H](NC(=O)[C@H](N)c3ccccc3)C(=O)N2[C@H]1C(=O)O` [ampicillin, Ampicillin, reference compound]: in assay [8], the “strain sensitivity to ampicillin, S. aureus” value is “ampicillin-sensible”. In addition, the “strain sensitivity to ampicillin, E. coli” value in assay [9] was “ampicillin-sensible”. Further, the “strain sensitivity to ampicillin, E. faecalis” value in assay [10] is reported as “ampicillin-sensible”.
